Measurements reported in patent US20140154269A1, “TARGETED NANOVECTORS AND THEIR USE FOR TREATMENT OF BRAIN TUMORS” (The Methodist Hospital Research Institute, priority 2011, published 2014).

Key:
[1] = cited from earlier work
[2] = system: immortalized human glioblastoma cell cultures; conditions: cited from earlier work
[3] = system: primary GBM cell cultures; experiment: Cell viability measurements (ddTUNEL, Dead Green, Hoechst staining) in primary GBM cultures; conditions: 24 h; PEG-HCCs 2.6 nM, GFAPAB 3.9 nM, SN-38 2 μM
Description: Total, viable, and dead glioma cell numbers in confluent primary GBM cell cultures were measured using ddTUNEL (a quantitative assay for 3′ OH DNA ends), Dead Green, and Hoechst stains. Cells were treated with GFAPAB/SN-38/PEG-HCCs or saline for 24 h.
Primary human glioblastoma or astrocytoma cells were prepared from tumors within 10 min of their excision. The tumors were broken up using a pipette and then grown in DMEM, 20% FBS, GlutaMax-I, sodium pyruvate and Pen/Strep, for 2 weeks. After this time, and in all presented data, the same media was used, except that sodium pyruvate was omitted. […] GBM and NHA were grown to confluency in the appropriate media on Costar 96-well growth plates (Corning, N.Y.C, NY, USA). […] Cells were grown for 24 h in the presence or absence of all effectors, in a total volume of 250 μL.
The biotinylated ddUTP and biotinylated blunt ended oligonucleotide probe was visualized using Texas Red labeled avidin. […]
Cells were counted at 4× magnification using a Nikon Eclipse TE2000-E fluorescent microscope equipped with a CoolSnap ES digital camera system (Roper Scientific) containing an CCD-1300-Y/HS 1392×1040 imaging array cooled by a Peltier device. Images were recorded using Nikon NIS-Elements software as JEP2000 files.

For `CCc1c2c(nc3ccc(O)cc13)-c1cc3c(c(=O)n1C2)COC(=O)[C@]3(O)CC` [SN-38], the “Log P” value [1] is listed as 1.87, the “LD50 range reported by others” value [2] is listed as 5 to 10 µM and the “toxicity towards GBM cells (average living cells from ddTUNEL, Dead Green, Hoechst)” value [3] is listed as “not toxic”.
In the case of `CC[C@]1(O)C[C@@H]2CN(CCc3c([nH]c4ccccc34)[C@@](C(=O)OC)(c3cc4c(cc3OC)N(C)[C@H]3[C@@](O)(C(=O)OC)[C@H](OC(C)=O)[C@]5(CC)C=CCN6CC[C@]43[C@@H]65)C2)C1` [Vin, Vinblastine], the “Log P” value [1] is given as 4.8.
